The target in this assay is BRD4(BD1) (Homo sapiens (Human), UniProt O60885). Put plainly: In vitro enzyme inhibition assay (BRD4 AlphaScreen). The format is binding. As to the method: His-tagged BRD4 was cloned, expressed and purified to homogeneity. […] BRD4 binding and inhibition was assessed by monitoring the interaction of biotinylated H4-tetraacetyl peptide (AnaSpec, H4K5/8/12/16(Ac), biotin-labeled) with the target using the AlphaScreen technology (Life Technologies). […] After 20 min incubation at room temp, Alpha streptavidin donor beads and Nickel Chelate acceptor beads were added to a final concentration of 5 μg/mL.
The ability of the compounds disclosed herein to inhibit BRD4 activity was quantified and the respective IC50 value was determined.
A general note: In Alpha technology, singlet oxygen from a donor bead excites a nearby acceptor bead.

Setting [1] is: in vitro enzyme inhibition assay.

Where a name gives a salt, the structure may show the parent alone. Read-outs that look alike come from different tables or passages of the source.

For the molecule `CCS(=O)(=O)c1ccc(NCC2CC2)c(-c2cc(OC)c(=O)n(C)c2)c1` [Example 414, 5-[2-(cyclopropylmethylamino)-5-ethylsulfonylphenyl]-3-methoxy-1-methylpyridin-2-one], the IC50 (commonly the midpoint of a concentration-inhibition curve) under setting [1] is less than 500 nM. In turn, `CCS(=O)(=O)Nc1ncc(Oc2ccc(F)cc2F)c(-c2cc(C(C)C)c(=O)n(C)c2)n1` [Example 514, N-[5-(2,4-difluorophenoxy)-4-(1-methyl-6-oxo-5-propan-2-ylpyridin-3-yl)pyrimidin-2-yl]ethanesulfonamide] showed an IC50 under setting [1] of less than 500 nM. On the same count and under the same terms, the same measure for `CCS(=O)(=O)c1ccc(Oc2ccc(F)cc2F)c(-c2cn(C)c(=O)c3cncnc23)c1` [Example 234, 8-[2-(2,4-difluorophenoxy)-5-ethylsulfonylphenyl]-6-methylpyrido[4,3-d]pyrimidin-5-one]: 500 to 5000 nM; for `Cn1cc(-c2nc(N3CCCS3(=O)=O)ncc2OCC2CC2)c2ccccc2c1=O` [Example 156, 4-[5-(cyclopropylmethoxy)-2-(1,1-dioxo-1,2-thiazolidin-2-yl)pyrimidin-4-yl]-2-methylisoquinolin-1-one]: less than 500 nM. `CCS(=O)(=O)Nc1ccc(Oc2ccc(F)cc2F)c(-c2cn(C)c(=O)c3c2CNCC3)c1` [Example 142, N-[4-(2,4-difluorophenoxy)-3-(2-methyl-1-oxo-5,6,7,8-tetrahydro-2,6-naphthyridin-4-yl)phenyl]ethanesulfonamide] yielded an IC50 under setting [1] of 500 to 5000 nM. `CCC(=O)Nc1cc(-c2cccc(NS(C)(=O)=O)c2)cn(C)c1=O` [Example 481, N-[5-[3-(methanesulfonamido)phenyl]-1-methyl-2-oxopyridin-3-yl]propanamide]: the IC50 under setting [1] was more than 5000 nM. For `Cn1cc(-c2cccc(S(=O)(=O)NC3CC3)c2)c2ccccc2c1=O` [Example 6, N-cyclopropyl-3-(2-methyl-1-oxoisoquinolin-4-yl) benzenesulfonamide], the IC50 (class symbols A/B/C) was 500 to 5000 nM.

Under setting [1], `Cc1cc(-c2cc(OCc3ccccn3)cc(S(C)(=O)=O)c2)cn(C)c1=O` [Example 330, 1,3-dimethyl-5-[3-methylsulfonyl-5-(pyridin-2-ylmethoxy)phenyl]pyridin-2-one] gave an IC50 of less than 500 nM.

Where the note is “class symbols A/B/C”, `CCS(=O)(=O)c1cccc(-c2cn(C)c(=O)c(N)n2)c1` [Example 105, 3-amino-5-(3-ethylsulfonylphenyl)-1-methylpyrazin-2-one] showed an IC50 of more than 5000 nM.

Where the note is “class symbols A/B/C”, `CNc1cccc(-c2cn(C)c(=O)c3ccccc23)c1` [Example 32, 2-methyl-4-[3-(methylamino)phenyl]isoquinolin-1-one Hydrochloride] displayed an IC50 of 500 to 5000 nM. On to `CCCc1cnc(NS(=O)(=O)CC)nc1-c1cc(OC)c(=O)n(C)c1` [Example 361, N-[4-(5-methoxy-1-methyl-6-oxopyridin-3-yl)-5-propylpyrimidin-2-yl]ethanesulfonamide], for which, under setting [1], the IC50 was less than 500 nM. Still for that read-out and setting: in the case of `Cn1cc(-c2nc(S(C)(=O)=O)ncc2OCC2CC2)c2ccccc2c1=O` [Example 311, 4-[5-(cyclopropylmethoxy)-2-methylsulfonylpyrimidin-4-yl]-2-methylisoquinolin-1-one] it was less than 500 nM. On to `CCS(=O)(=O)c1cccc(-c2cn(C)c(=O)c3cncn23)c1` [Example 133, 5-(3-ethylsulfonylphenyl)-7-methylimidazo[1,5-a]pyrazin-8-one], for which the IC50 (class symbols A/B/C) was more than 5000 nM. As for `CNc1cc(-c2cc(NS(C)(=O)=O)ccc2Oc2ccc(F)cc2F)cn(C)c1=O` [Example 412, N-[4-(2,4-difluorophenoxy)-3-[1-methyl-5-(methylamino)-6-oxopyridin-3-yl]phenyl]methanesulfonamide], the IC50 under setting [1] is less than 500 nM. In the case of `CCS(=O)(=O)c1ccc(NCC2CC2)c(-c2cn(C)c(=O)cc2C)c1` [Example 423, 5-[2-(cyclopropylmethylamino)-5-ethylsulfonylphenyl]-1,4-dimethylpyridin-2-one], the half-maximal inhibitory concentration (IC50) under setting [1] lay within 500 to 5000 nM. The molecule `CCS(=O)(=O)Nc1ncc(Oc2ccc(F)cc2F)c(-c2cc(C)c(=O)n(CC3CCC3)c2)n1` [Example 299, N-[4-[1-(cyclobutylmethyl)-5-methyl-6-oxopyridin-3-yl]-5-(2,4-difluorophenoxy)pyrimidin-2-yl]ethanesulfonamide] showed an IC50 under setting [1] of 500 to 5000 nM.

Consider `Cc1cc(-c2nc(NS(C)(=O)=O)ncc2Oc2ccc(F)cc2F)cn(CC2CCC2)c1=O` [Example 298, N-[4-[1-(cyclobutylmethyl)-5-methyl-6-oxopyridin-3-yl]-5-(2,4-difluorophenoxy)pyrimidin-2-yl]methanesulfonamide], for which the 50% inhibitory concentration (IC50) under setting [1] fell in the range of 500 to 5000 nM. Molecule `CCS(=O)(=O)c1cccc(-c2cn(C)c(=O)c3ccncc23)c1` [Example 126, 4-(3-ethylsulfonylphenyl)-2-methyl-2,6-naphthyridin-1-one] had an IC50 (class symbols A/B/C) of more than 5000 nM.

For the molecule `CC(=O)Nc1cc(-c2cccc(NS(C)(=O)=O)c2)cn(C)c1=O` [Example 482, N-[5-[3-(methanesulfonamido)phenyl]-1-methyl-2-oxopyridin-3-yl]acetamide], under setting [1], the IC50 is more than 5000 nM. Under setting [1], `CCCCc1ccc(S(C)(=O)=O)cc1-c1cn(C)c(=O)c2ccccc12` [Example 318, 4-(2-butyl-5-methylsulfonylphenyl)-2-methylisoquinolin-1-one] returned an IC50 of less than 500 nM. As for `CC#CCOc1cc(-c2cc(C)c(=O)n(C)c2)cc(S(C)(=O)=O)c1` [Example 340, 5-(3-but-2-ynoxy-5-methylsulfonylphenyl)-1,3-dimethylpyridin-2-one], the IC50 under setting [1] is less than 500 nM. In the case of `COc1ccc(-c2cn(C)c(=O)c3ccccc23)cc1S(N)(=O)=O` [Example 16, 2-methoxy-5-(2-methyl-1-oxoisoquinolin-4-yl) benzenesulfonamide], the IC50 (class symbols A/B/C) is 500 to 5000 nM.

For `CCCCn1cc(-c2nc(NS(C)(=O)=O)ncc2Oc2ccc(F)cc2F)cc(C)c1=O` [Example 296, N-[4-(1-butyl-5-methyl-6-oxopyridin-3-yl)-5-(2,4-difluorophenoxy)pyrimidin-2-yl]methanesulfonamide], the IC50 under setting [1] was less than 500 nM.

`CCS(=O)(=O)Nc1cc(OCc2ccccc2)cc(-c2cc(C)c(=O)n(C)c2)c1` [Example 395, N-[3-(1,5-dimethyl-6-oxopyridin-3-yl)-5-phenylmethoxyphenyl]ethanesulfonamide] yielded an IC50 under setting [1] of less than 500 nM. `COc1ccc(-c2cc(NCC3CC3)c(=O)n(C)c2)cc1NS(C)(=O)=O` [Example 112, N-[5-[5-(cyclopropylmethylamino)-1-methyl-6-oxopyridin-3-yl]-2-methoxyphenyl]methanesulfonamide]: the IC50 (class symbols A/B/C) was 500 to 5000 nM. With `CCS(=O)(=O)c1ccc(Oc2ccc(F)cc2F)c(-c2cc(C(F)(F)F)c(=O)n(C)c2)c1` [Example 392, 5-[2-(2,4-difluorophenoxy)-5-ethylsulfonylphenyl]-1-methyl-3-(trifluoromethyl)pyridin-2-one], under setting [1], the IC50 lay in the range of 500 to 5000 nM. In the case of `Cn1cc(-c2cc(N)ccc2F)c2ccccc2c1=O` [Example 23, 4-(5-amino-2-fluorophenyl)-2-methylisoquinolin-1-one hydrochloride], where the note is “class symbols A/B/C”, the half-maximal inhibitory concentration (IC50) fell in the range of 500 to 5000 nM. In the case of `Cc1cc(-c2cc(S(C)(=O)=O)ccc2NC2CCC(F)(F)CC2)cn(C)c1=O` [Example 413, 5-[2-[(4,4-difluorocyclohexyl)amino]-5-methylsulfonylphenyl]-1,3-dimethylpyridin-2-one], under setting [1], the IC50 is less than 500 nM. `COc1ccc2c(=O)n(C)cc(-c3cc(S(=O)(=O)C(C)C)ccc3OCC3CC3)c2c1` [Example 393, 4-[2-(cyclopropylmethoxy)-5-propan-2-ylsulfonylphenyl]-6-methoxy-2-methylisoquinolin-1-one] came in with an IC50 under setting [1] of less than 500 nM. In the case of `Cn1cc(-c2cc(S(C)(=O)=O)cc3c2OC(C2CC2)C3)c2ccccc2c1=O` (stereo not drawn) [Example 493, 4-(2-cyclopropyl-5-methylsulfonyl-2,3-dihydro-1-benzofuran-7-yl)-2-methylisoquinolin-1-one], under setting [1], the IC50 was less than 500 nM. Under setting [1], `Cn1cc(-c2cc(OCc3ccccc3)cc(S(C)(=O)=O)c2)c2ccccc2c1=O` [Example 344, 2-methyl-4-(3-methylsulfonyl-5-phenylmethoxyphenyl)isoquinolin-1-one] gave an IC50 of less than 500 nM.

Under setting [1], `Cn1cc(-c2cc(S(C)(=O)=O)ccc2OCC2CC2)c2ocnc2c1=O` [Example 237, 7-[2-(cyclopropylmethoxy)-5-methylsulfonylphenyl]-5-methyl-[1,3]oxazolo[4,5-c]pyridin-4-one] yielded an IC50 of less than 500 nM.

`Cn1cc(-c2cccc(S(N)(=O)=O)c2)c2ccncc2c1=O` [Example 55, 3-(2-methyl-1-oxo-2,7-naphthyridin-4-yl) benzenesulfonamide] displayed an IC50 (class symbols A/B/C) of more than 5000 nM.

As for “8-[2-(cyclopropylmethoxy)-5-ethylsulfonylphenyl]-6-methyl-3,4,4a,8a-tetrahydro-2H-pyrido[4,3-b][1,4]oxazin-5-one [Example 366]”, the half-inhibitory concentration (IC50) is less than 500 nM. Turning to `CCS(=O)(=O)Nc1cc(-c2ccc(=O)n(C)c2)c(-c2ccccc2)s1` [Example 424, N-[4-(1-methyl-6-oxopyridin-3-yl)-5-phenylthiophen-2-yl]ethanesulfonamide], the IC50 under setting [1] was more than 5000 nM. Under setting [1], `Cn1cc(-c2cc(NS(C)(=O)=O)ccc2Oc2ccc(F)cc2F)c2c(c1=O)CCC2` [Example 506, N-[4-(2,4-difluorophenoxy)-3-(2-methyl-1-oxo-6,7-dihydro-5H-cyclopenta[c]pyridin-4-yl)phenyl]methanesulfonamide] gave a concentration for half-maximal inhibition (IC50) of less than 500 nM. Molecule `Cn1cc(-c2cc(S(C)(=O)=O)ccc2CCC2CC2)ccc1=O` [Example 315, 5-[2-(2-cyclopropylethyl)-5-methylsulfonylphenyl]-1-methylpyridin-2-one] came in with an IC50 under setting [1] of less than 500 nM.

The molecule `Cn1cc(-c2cccc(S(C)(=O)=O)c2)nc(N)c1=O` [Example 104, 3-amino-1-methyl-5-(3-methylsulfonylphenyl)pyrazin-2-one] came in with an IC50 (class symbols A/B/C) of more than 5000 nM. Take `COc1cccc(-c2cn(C)c(=O)c3ccccc23)c1` [Example 1, 4-(3-methoxyphenyl)-2-methylisoquinolin-1-one]: the IC50 (class symbols A/B/C) fell in the range of 500 to 5000 nM.

These data come from patent US10023592B2, “Bromodomain inhibitors” (Celgene Quanticel Research, Inc., priority 2013, dated 2018).
